According to patent US10117943B2, “Synthetic antibody mimetic compounds (SYAMS) targeting cancer, especially prostate cancer” (YALE UNIVERSITY, priority 2013, dated 2018):

How the values were obtained:
FcγRI = biological target: T1, FcγRI (Homo sapiens, UniProt P12314); test: IIA1.6 FcγRI expressing cell binding assay; settings: biotin-functionalized compound, fluorescent streptavidin
T1 construct: host or cells: IIA1.6 cells
Method: Peptide dilutions have been prepared in DMSO usually starting form 1 mM stock solution with further 10 fold dilution. Cells IIa1.6 stably transfected with FcγRIA/γ-chain and non-transfected IIa1.6 cells used as isogenic negative control, were grown to approximately 1.5-2×10^6 cells/mL density, spun down and reconstituted in RPMI 1640 medium without phenol red, supplemented with 10% FBS and Pen/Strep mixture to cell density 1×10^6 cells/mL. A 100 uL aliquot of cells was further transferred into an eppendorf tube and left to cool on ice for 5-10 minutes. Following this 1 uL of peptide dissolved in DMSO was added to the cells, bringing final concentration of DMSO to 1%. After 1 hour incubation on ice with a peptide 5 uL of Streptavidin-Alexafluor 488 (2 mg/mL) was added to the cells and left incubating on ice for 30-60 minutes. After the incubation cells were washed two times with 1 mL of cold RPMI1640 medium without phenol red, supplemented with 10% FBS and Pen/Strep and finally washed once in 1 mL TBS Buffer (150 mM NaCl and 25 mM Tris, pH 7.4). Cells were resuspended in residual TBS buffer (usually ˜100 uL) and analyzed via flow cytometry with detection in the FL1 channel.

RM1.PGLS cells [1] = test: Phagocytosis of PSMA expressing RM1.PGLS cells by IFN-γ primed U937 cells; format: cell-based; settings: IFN-γ primed U937 effectors
Method: Target cell passing: Three days before the experiments, a plate of target cells, RM1.PGLS cells were passed into a new flask.
Effector cell priming: Three days before the experiments, a plate of U937 cells (approximately 60% confluent) was passed into a new Petri dish (10 mL colored ADCP media total volume). IFN-γ (20 μL, 100 μg/mL in DPBS) was added, and the cells were maintained in an incubator (37° C., 24 h). The cells were transferred into a Falcon tube, and DiD (19 uL, final concentration=1.9 μM) was added. The cells were maintained in an incubator (37° C., 30 min), pelleted, aspirated, resuspended in colored ADCP media (10 mL), and split equally into two Petri dishes. To each dish were added additional colored ADCP media (5 mL) and IFN-γ (20 μL, 100 μg/mL in DPBS), and the cells were maintained in an incubator (37° C., 24 h).
Target cell preparation: To a plate of target cells (60-80% confluent RM1.PGLS cells 10 mL total media volume) was added DiO (20 μL, final concentration=2 μM). The cells were maintained in an incubator (37° C., 30 min), aspirated, and washed with colored ADCP media (3×10 mL). Colored ADCP media (10 mL) was added. The cells were maintained in an incubator (37° C., 2 h), detached and resuspended in color-free ADCP media at a concentration of 0.5 million cells per mL.
Effector cell preparation: Both dishes of primed U937 cells were transferred into a Falcon tube, pelleted, aspirated, resuspended in color-free ADCP media (10 mL), counted, and diluted with color-free ADCP media to give a final concentration of 2 million cells per mL.
Phagocytosis: All conditions were run in triplicate. For each experiment, into a sterile 2 mL Eppendorf tube were added color-free ADCP media (25 μL) containing either various concentrations of SyAM-Px or ARM-P8/Anti-DNP antibody, target cells (25 μL=12,500 cells), and effector cells (50 μL=100,000 cells), to give an effector-to-target ratio of 8:1. Tubes were gently agitated by hand. The cells were pelleted (2 min, 1100 rpm). The tubes were opened, maintained in an incubator (37° C., 1 h), resuspended by briefly agitating with a vortex, and analyzed by flow cytometry.

PSMA coated beads = test: ROS production (superoxide burst, lucigenin) by primed U937 cells against PSMA coated beads; format: cell-based; settings: PSMA labeled beads, target dependent
Method: Three days before the experiments, a plate of U937 cells (approximately 60% confluent) was passed into a new Petri dish (10 mL colored RPMI growth media total volume). IFN-γ (20 μL, 100 μg/mL in DPBS) was added, and the cells were maintained in an incubator (37° C., 24 h). The cells were pelleted after 24 hours and resuspended in 10 mL of IFN-γ (20 uL, 100 ug/mL in DPBS) and maintained in an incubator (37° C., 24 h)
For ROS production cells were resuspended in RPMI growth media (10 mL), and split equally into two Petri dishes. To each dish were added additional colored RPMI growth media (5 mL) and IFN-γ (20 μL, 100 μg/mL in DPBS), and maintained in an incubator (37° C., 24 h)
Primed U937 were suspended in color-free ADCP media at a concentration of 3×10^5 U937 cells and mixed with 10^5 PSMA coated beads and various concentrations of molecules in a 96 well plate in a volume of 90 uL. To each well was added 10 μl of 2.5 mM lucigenin (Tokyo Chemicals) solution to bring the total volume to 100 μl. The plate was centrifuged at 200 rcf for 2 minutes (PLATE SPINNER). The chemiluminescence was then measured at two minute intervals by plate reader (Biotek Synergy 2) for 60 to 90 minutes.

RM1.PGLS cells [2] = test: Superoxide burst (lucigenin) by primed U937 cells against RM1.PGLS cells; format: cell-based; settings: IFN-γ primed U937 effectors
Text: Since SyAM-P1 was able to induce effector-cell mediated responses against target protein coated beads, the inventors then evaluated if the molecule can elicit the effects against PSMA expressing cells. To that end, the inventors evaluated the SyAM-P1 induced immune responses by primed U937 effector cells against PSMA expressing RM1.PGLS cells. They tested the U937-mediated immune effects by evaluating both superoxide burst and phagocytosis of effector cells, analogous to the protein coated bead experiments. In this experiment, IFN-γ primed U937 cells were incubated with PSMA expressing RM1.PGLS cells, and treated with various concentrations of SyAM-P1. The resulting superoxide burst response was measured using the lucigenin assay (data not shown). Additionally, primed U937 cells (stained with DiD, an FL4 membrane dye) were incubated with target RM1.PGLS cells (stained with […], an FL1 membrane dye), in the presence of various concentrations of SyAM-P 1. The resulting phagocytosis—indicated by FL1 and FL4 double positive cells—was measured using two-color flow-cytometry. As a positive control, ARM-P8 combined with anti-DNP antibodies was utilized. […] The positive response seen with the Arm-P8 control, could potentially be attributed to the ability of antibodies to ligate both FcγRI and FcγRIIA on the immune effector cells, increasing immune signaling and phagocytic responses.

[3] = biological target: T2, FcγRI on IIA1.6 cells and soluble recombinant human PSMA (Homo sapiens, UniProt P12314+Q04609); test: Ternary complex formation between FcγRI expressing IIA1.6 cells and soluble PSMA; format: binding; settings: probed with phycoerythrin anti-PSMA antibody
T2 construct: soluble recombinant human PSMA; Avi-tag; expressed in transfected cells; host or cells: IIA1.6 cells (FcγRI); PSMA added as soluble recombinant protein
T2 sequence (P12314 16-374): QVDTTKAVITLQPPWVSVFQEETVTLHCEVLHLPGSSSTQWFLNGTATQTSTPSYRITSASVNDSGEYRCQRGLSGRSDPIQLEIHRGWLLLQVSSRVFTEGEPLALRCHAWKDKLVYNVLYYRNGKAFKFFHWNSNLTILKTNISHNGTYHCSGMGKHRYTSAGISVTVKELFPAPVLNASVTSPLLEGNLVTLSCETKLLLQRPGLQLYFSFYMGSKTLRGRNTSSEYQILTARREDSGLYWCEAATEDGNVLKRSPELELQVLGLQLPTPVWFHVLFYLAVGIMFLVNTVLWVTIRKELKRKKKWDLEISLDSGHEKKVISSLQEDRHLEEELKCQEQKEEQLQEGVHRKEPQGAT
T2 sequence (Q04609 44-750 limits assumed): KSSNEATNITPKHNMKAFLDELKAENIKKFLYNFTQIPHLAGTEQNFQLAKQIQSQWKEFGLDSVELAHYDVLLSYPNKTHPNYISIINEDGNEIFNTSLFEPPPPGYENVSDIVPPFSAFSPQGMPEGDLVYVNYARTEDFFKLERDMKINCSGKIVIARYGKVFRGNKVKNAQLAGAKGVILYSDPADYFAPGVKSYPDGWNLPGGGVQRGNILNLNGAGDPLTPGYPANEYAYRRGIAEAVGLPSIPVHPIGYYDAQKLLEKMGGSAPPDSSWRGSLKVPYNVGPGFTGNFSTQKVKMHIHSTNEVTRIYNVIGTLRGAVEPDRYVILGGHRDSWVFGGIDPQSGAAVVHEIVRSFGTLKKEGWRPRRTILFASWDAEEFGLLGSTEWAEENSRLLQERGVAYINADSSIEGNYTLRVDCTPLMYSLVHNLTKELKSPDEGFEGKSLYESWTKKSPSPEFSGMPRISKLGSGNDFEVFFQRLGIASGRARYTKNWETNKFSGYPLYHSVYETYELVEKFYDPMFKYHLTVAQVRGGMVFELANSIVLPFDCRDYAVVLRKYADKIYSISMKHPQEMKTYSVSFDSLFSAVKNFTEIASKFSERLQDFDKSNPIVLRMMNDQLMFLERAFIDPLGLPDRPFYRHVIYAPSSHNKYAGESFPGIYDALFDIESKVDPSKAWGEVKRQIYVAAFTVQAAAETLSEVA
T2 sequence (P30273 19-86 partner): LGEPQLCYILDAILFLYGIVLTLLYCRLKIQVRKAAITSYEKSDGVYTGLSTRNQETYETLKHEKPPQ
Method: The inventors next evaluated SyAM-P1's ability to induce ternary complex formation, using soluble PSMA and FcγRI expressing cells (IIA1.6 cells) (FIG. 3c). The binding of PSMA to the cells was probed with a phycoerythrin anti-PSMA antibody, and was analyzed using flow cytometry.

PSMA on RM1.PGLS cells = biological target: T3, PSMA on RM1.PGLS cells (Homo sapiens, UniProt Q04609); test: Binding to PSMA on RM1.PGLS cells (flow cytometry); settings: biotin-functionalized compound, fluorescent streptavidin
T3 construct: host or cells: RM1.PGLS cells
T3 sequence (Q04609 whole entry): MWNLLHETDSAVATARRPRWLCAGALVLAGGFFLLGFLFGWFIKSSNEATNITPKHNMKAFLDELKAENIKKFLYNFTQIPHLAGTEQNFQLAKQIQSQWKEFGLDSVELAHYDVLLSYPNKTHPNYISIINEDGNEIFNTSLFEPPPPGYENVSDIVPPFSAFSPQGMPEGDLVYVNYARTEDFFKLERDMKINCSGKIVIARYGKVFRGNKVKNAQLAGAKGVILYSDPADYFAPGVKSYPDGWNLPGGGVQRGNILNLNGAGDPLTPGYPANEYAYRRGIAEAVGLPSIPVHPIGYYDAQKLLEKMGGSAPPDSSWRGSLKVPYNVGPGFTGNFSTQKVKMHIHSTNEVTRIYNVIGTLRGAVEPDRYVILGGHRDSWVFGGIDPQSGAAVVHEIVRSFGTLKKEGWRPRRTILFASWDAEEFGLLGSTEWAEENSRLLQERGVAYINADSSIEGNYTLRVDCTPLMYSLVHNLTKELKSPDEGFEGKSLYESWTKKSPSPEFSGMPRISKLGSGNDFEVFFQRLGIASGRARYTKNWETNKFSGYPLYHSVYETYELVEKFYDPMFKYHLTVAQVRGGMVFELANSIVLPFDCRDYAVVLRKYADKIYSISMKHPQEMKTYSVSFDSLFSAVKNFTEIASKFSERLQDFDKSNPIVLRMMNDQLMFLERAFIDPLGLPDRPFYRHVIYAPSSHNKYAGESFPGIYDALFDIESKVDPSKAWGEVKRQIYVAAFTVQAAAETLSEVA
Text: Accordingly, the inventors first synthesized the SyAM-P1 molecule, using Fmoc solid phase peptide synthesis to connect the two moieties (FIG. 2). As a consequence of that chemical synthesis the inventors tried to determine whether linking the two moieties would influence their ability to bind their respective protein targets, in a selective manner (FIG. 3A,B). The inventors thereafter evaluated the ability of the first-generation of SyAM-P molecules, identified as SyAM-P1, to bind PSMA on RM1.PGLS cells (FIG. 3A) or FcγRI on IIA1.6 cells (FIG. 3B). These experiments were conducted using SyAM-P1 molecules that were functionalized with biotin, and the bound SyAM-P1 was detected using a fluorescently labeled streptavidin, via flow-cytometry.
The binding of each SyAm derivative to PSMA was evaluated on PSMA-coated beads. 6 μm streptavidin labeled beads (Polysciences) were incubated with 400 μg/ml recombinant avi-tagged-PSMA protein for 30 minutes. Beads were washed twice with PBS, blocked with 1 mg/ml biotin for 30 minutes and then washed twice with TBS-A. 10^5 beads were incubated with a dilution series of SyAm ranging from 1 μM-100 pM. Streptavidin-Alexa467 (Invitrogen) was added to a final concentration of 3.3 μM. Samples were incubated on ice for 30 minutes, washed twice with DPBS, and evaluated by an Accuri C6 flow cytometer. […]

T1 sequence (P12314 16-374): as the sequence (P12314 16-374) above
T1 sequence (P30273 19-86 partner): as the sequence (P30273 19-86 partner) above

In the case of `CC(=O)N[C@H](C(=O)N[C@@H](CC(N)=O)C(=O)N[C@@H](CO)C(=O)N[C@H]1CSSC[C@@H](C(=O)NCC(=O)N[C@@H](CC(=O)O)C(=O)N[C@@H](CC(=O)O)C(=O)N[C@@H](CCCCNC(=O)CCCC[C@@H]2SC[C@@H]3NC(=O)N[C@@H]32)C(=O)NCCCCCC(=O)NCCCCCC(=O)NCCCCCC(=O)NCCCCCC(=O)NCCCCCC(=O)N[C@@H](CCCCNC(=O)CCCCc2cn(CCCC[C@H](NC(=O)N[C@@H](CCC(=O)O)C(=O)O)C(=O)O)nn2)C(=O)NCC(N)=O)NC(=O)CNC(=O)[C@H](CC(C)C)NC(=O)[C@H](CC(C)C)NC(=O)[C@H](CC(N)=O)NC(=O)[C@@H]2CCCN2C(=O)[C@H](CC(C)C)NC(=O)[C@H](CC(C)C)NC(=O)[C@H](CC(C)C)NC1=O)C(C)C` [SyAM-P1], the “binding to FcγRI on IIA1.6 cells” value (FcγRI) is reported as “capability to bind to its respective targets”, the “phagocytosis of RM1.PGLS cells (in words)” value (RM1.PGLS cells [1]) is reported as “unable to induce any immune responses” and the “concentration at which superoxide burst is induced” value (PSMA coated beads) is reported as 100 nM. For the same molecule, the “superoxide burst against RM1.PGLS cells (in words)” value (RM1.PGLS cells [2]) was “unable to induce any immune responses”, the ternary complex formation [3] was “mediated through SyAM-P1” and the “binding to PSMA on RM1.PGLS cells” value (PSMA on RM1.PGLS cells) was “capability to bind to its respective targets”.
